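Assay format: 96-well plates, 48-hour exposure. GI50 = concentration required for 50% inhibition of growth.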 The source made the active and inactive calls. Cut-off read from the data, not from the text of the source: active = GI50 up to about 1.1 µM and inactive = higher.
Columns and labels:
Assay in all cases: growth of human tumour cells (NCI), 48 h
[1] = test system: 786-0
[2] = test system: OVCAR-4
[3] = test system: SF-268
[4] = test system: SW-620
[5] = test system: HOP-92
[6] = test system: HT-29
[7] = test system: T47D
[8] = test system: ACHN
[9] = test system: CCRF-CEM
[10] = test system: RPMI-8226
[11] = test system: OVCAR-8
[12] = test system: M14
[13] = test system: MCF7
[14] = test system: A549
[15] = test system: SK-MEL-2
[16] = test system: NCI-H460
[17] = test system: CAKI-1
[18] = test system: NCI-H522
[19] = test system: DU-145
[20] = test system: SN12C
[21] = test system: HOP-62
[22] = test system: MDA-MB-231
[23] = test system: SNB-19
[24] = test system: SK-MEL-28
[25] = test system: Hs-578T
[26] = test system: OVCAR-3
[27] = test system: SK-OV-3
[28] = test system: K562
[29] = test system: A498
[30] = test system: UACC-257
[31] = test system: SNB-75
[32] = test system: HCT-15
[33] = test system: NCI-H23
[34] = test system: RXF 393
[35] = test system: BT-549
[36] = test system: MDA-MB-435
[37] = test system: KM12
[38] = test system: MOLT-4
[39] = test system: UO-31
[40] = test system: HCC 2998
[41] = test system: EKVX
[42] = test system: SR
[43] = test system: U-251
[44] = test system: OVCAR-5
[45] = test system: COLO 205
[46] = test system: TK-10
[47] = test system: NCI/ADR-RES
[48] = test system: UACC-62
[49] = test system: SF-295
[50] = test system: SK-MEL-5
[51] = test system: SF-539
[52] = test system: PC-3
[53] = test system: NCI-H226
[54] = test system: Malme-3M
[55] = test system: LOX IMVI
[56] = test system: HCT-116
[57] = test system: MDA-N

O=C(CCCCCCCCC(=O)N1C(=O)CC(=O)N(c2ccc(Cl)cc2)C1=S)N1C(=O)CC(=O)N(c2ccc(Cl)cc2)C1=S
GI50 [1]: 67.9 µM (inactive) | GI50 [2]: 41.6 µM (inactive) | GI50 [3]: > 100 µM (inactive) | GI50 [4]: > 100 µM (inactive) | GI50 [5]: > 100 µM (inactive) | GI50 [6]: 73.5 µM (inactive) | GI50 [7]: 33.3 µM (inactive) | GI50 [8]: 35.4 µM (inactive) | GI50 [9]: 30.9 µM (inactive) | GI50 [10]: 30.6 µM (inactive) | GI50 [11]: 63.5 µM (inactive) | GI50 [12]: 38.5 µM (inactive) | GI50 [13]: 37.8 µM (inactive) | GI50 [14]: 34.2 µM (inactive) | GI50 [15]: 49.1 µM (inactive) | GI50 [16]: 29.6 µM (inactive) | GI50 [17]: > 100 µM (inactive) | GI50 [18]: 29 µM (inactive) | GI50 [19]: > 100 µM (inactive) | GI50 [20]: > 100 µM (inactive) | GI50 [21]: 80.9 µM (inactive) | GI50 [22]: 70.8 µM (inactive) | GI50 [23]: 74.1 µM (inactive) | GI50 [24]: 70.3 µM (inactive) | GI50 [25]: > 100 µM (inactive) | GI50 [26]: 51.3 µM (inactive) | GI50 [27]: 73.3 µM (inactive) | GI50 [28]: 17.5 µM (inactive) | GI50 [29]: > 100 µM (inactive) | GI50 [30]: > 100 µM (inactive) | GI50 [31]: > 100 µM (inactive) | GI50 [32]: 35.6 µM | GI50 [33]: 58.5 µM (inactive) | GI50 [34]: > 100 µM (inactive) | GI50 [35]: 67 µM (inactive) | GI50 [36]: 58.1 µM (inactive) | GI50 [37]: 27.4 µM (inactive) | GI50 [38]: 19.8 µM (inactive) | GI50 [39]: 35.7 µM (inactive) | GI50 [40]: 38.9 µM (inactive) | GI50 [41]: 47.4 µM (inactive) | GI50 [42]: 8.93 µM (inactive) | GI50 [43]: > 100 µM (inactive) | GI50 [44]: > 100 µM (inactive) | GI50 [45]: 32.9 µM (inactive) | GI50 [46]: > 100 µM (inactive) | GI50 [47]: 24.5 µM (inactive) | GI50 [48]: 15.5 µM (inactive) | GI50 [49]: 33 µM (inactive) | GI50 [50]: 29.9 µM (inactive) | GI50 [51]: > 100 µM (inactive) | GI50 [52]: 57.1 µM (inactive) | GI50 [53]: > 100 µM (inactive) | GI50 [54]: > 100 µM (inactive) | GI50 [55]: 54.8 µM (inactive) | GI50 [56]: 48.5 µM (inactive) | GI50 [57]: 38.6 µM (inactive)

— ChEMBL document CHEMBL1201862, “PubChem BioAssay data set” (2004)
